From patent publication US9650336B2, “Mono-fluoro beta-secretase inhibitors” (ASTRAZENECA AB, priority 2011, dated 2017) come the findings set out here.

Assay [1] concerns the target T1, human β-secretase (sBACE-Fc, soluble part AA 1-AA 460) (Homo sapiens (Human), UniProt P56817). Nature of the assay: Diluted TR-FRET assay. It counts as biochemical. To be noted: 50 times less enzyme, 6.5 h reaction time at r.t. in the dark; read-out: IC50 from the diluted FRET assay. On the procedure:
(§1) The β-secretase enzyme used in the TR-FRET is prepared as follows:
(§2) The cDNA for the soluble part of the human 13-Secretase (AA 1-AA 460) was cloned using the ASP2-Fc10-1-IRES-GFP-neoK mammalian expression vector. The gene was fused to the Fc domain of IgG1 (affinity tag) and stably cloned into HEK 293 cells.
[…] The robotic systems Biomek FX and Velocity 11 were used for all liquid handling and the enzyme and substrate solutions were kept on ice until they were placed in the robotic system. Enzyme (9 μL) was added to the plate then 1 μL of compound in dimethylsulphoxide was added, mixed and pre-incubated for 10 minutes. […] The reaction was stopped with the addition of Stop solution (7 μL, NaAcetate, pH 9). The fluorescence of the product was measured on a Victor II plate reader with an excitation wavelength of 340 nm and an emission wavelength of 615 nm. The assay was performed in a Costar 384 well round bottom, low volume, non-binding surface plate (Corning #3676). […] The dimethylsulphoxide control, instead of test compound, defined the 100% activity level and 0% activity was defined by wells lacking enzyme (replaced with reaction buffer).
A general note: TR-FRET usually uses a lanthanide donor and a delayed reading to cut background.

In assay [2] the test system is sAPPβ release in SH-SY5Y cells. Nature of the assay: sAPPβ release assay. It counts as cell-based. To be noted: Homo sapiens, 17 h incubation. On the procedure:
SH-SY5Y cells were cultured in DMEM/F-12 with Glutamax, 10% FCS and 1% non-essential amino acids and cryopreserved and stored at −140° C. at a concentration of 7.5-9.5×10^6 cells per vial. Thaw cells and seed at a conc. of around 10000 cells/well in DMEM/F-12 with Glutamax, 10% FCS and 1% non-essential amino acids to a 384-well tissue culture treated plate, […] cell susp/well. The cell plates were then incubated for 7-24 h at 37° C., 5% CO2. The cell medium was removed, followed by addition of 30 μL compound diluted in DMEM/F-12 with Glutamax, 10% FCS, 1% non-essential amino acids and 1% PeSt to a final conc. of 1% DMSO. The compounds were incubated with the cells for 17 h (overnight) at 37° C., 5% CO2. Meso Scale Discovery (MSD) plates were used for the detection of sAPPβ release. MSD sAPPβ plates were blocked in 1% BSA in Tris wash buffer (40 μL/well) for 1 h on shake at r.t. and washed 1 time in Tris wash buffer (40 μL/well). 20 μL of medium was transferred to the pre-blocked and washed MSD sAPPβ microplates, and the cell plates were further used in an ATP assay to measure cytotoxicity. The MSD plates were incubated with shaking at r.t. for 2 h and the media discarded. 10 μL detection antibody was added (1 nM) per well followed by incubation with shaking at r.t. for 2 h and then discarded. 40 μL Read Buffer was added per well and the plates were read in a SECTOR Imager.

The target of assay [3] is T1, human β-secretase (sBACE-Fc, soluble part AA 1-AA 460). Nature of the assay: TR-FRET assay. The settings on record: TruPoint BACE1 substrate 100 nM, pH 4.5, 15 min at r.t. It counts as biochemical. On the procedure: as §1, §2
The enzyme (truncated form) was diluted to 6 μg/mL (stock 1.3 mg/mL) and the TruPoint BACE1 Substrate to 200 nM (stock 120 μM) in reaction buffer (NaAcetate, chaps, triton x-100, EDTA pH4.5). The robotic systems Biomek FX and Velocity 11 were used for all liquid handling and the enzyme and substrate solutions were kept on ice until they were placed in the robotic system. Enzyme (9 μL) was added to the plate then 1 μL of compound in dimethylsulphoxide was added, mixed and pre-incubated for 10 minutes. Substrate (10 μL) was then added, mixed and the reaction proceeded for 15 minutes at r.t. The reaction was stopped with the addition of Stop solution (7 μL, NaAcetate, pH 9). The fluorescence of the product was measured on a Victor II plate reader with an excitation wavelength of 340 nm and an emission wavelength of 615 nm. The assay was performed in a Costar 384 well round bottom, low volume, non-binding surface plate (Corning #3676). […] The dimethylsulphoxide control, instead of test compound, defined the 100% activity level and 0% activity was defined by wells lacking enzyme (replaced with reaction buffer).

T1 sequence (P56817 22-460): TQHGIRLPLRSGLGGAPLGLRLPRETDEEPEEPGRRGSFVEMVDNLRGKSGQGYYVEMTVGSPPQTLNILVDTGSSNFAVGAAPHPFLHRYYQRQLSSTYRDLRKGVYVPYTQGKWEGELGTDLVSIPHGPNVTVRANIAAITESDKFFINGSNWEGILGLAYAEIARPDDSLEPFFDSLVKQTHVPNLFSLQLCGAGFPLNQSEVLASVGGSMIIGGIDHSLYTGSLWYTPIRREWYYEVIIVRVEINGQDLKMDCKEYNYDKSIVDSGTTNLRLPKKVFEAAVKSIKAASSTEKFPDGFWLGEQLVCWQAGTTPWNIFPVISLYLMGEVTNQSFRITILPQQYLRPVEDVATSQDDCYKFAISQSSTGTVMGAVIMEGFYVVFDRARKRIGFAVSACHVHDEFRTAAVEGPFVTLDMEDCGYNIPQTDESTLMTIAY

One may read the IC50 as the concentration that gives 50% inhibition. For `CO[C@H]1CC[C@]2(CC1)Cc1ccc(-c3cncnc3)cc1C21C=C(F)C(N)=N1` (stereo partly drawn) [Example 1, (1r,4r)-4″-fluoro-4-methoxy-6′-(pyrimidin-5-yl)-3′H-dispiro[cyclohexane-1,2′-indene-1,2″-pyrrol]-5″amine], the 50% inhibitory concentration (IC50) in assay [1] was 22 nM; in assay [2], 1.1 nM.
On to `CO[C@H]1CC[C@@]2(CC1)Cc1ccc(-c3cncnc3)cc1C21C=C(F)C(N)=N1` (stereo partly drawn) [Example 2, (1s,4s)-4″-Fluoro-4-methoxy-6′-(pyrimidin-5-yl)-3′H-dispiro[cyclohexane-1,2′-indene-1,2″-pyrrol]-5″amine], for which the half-maximal inhibitory concentration (IC50) in assay [2] was found to be 56 nM; in assay [3], 1970 nM.
On the same counts, the results for `CC#Cc1cncc(-c2ccc3c(c2)C2(C=C(F)C(N)=N2)[C@]2(CC[C@H](OC)CC2)C3)c1` (stereo partly drawn) [Example 3, (1r,4r)-4″-Fluoro-4-methoxy-6′-[5-(prop-1-yn-1-yl)pyridin-3-yl]-3′H-dispiro[cyclohexane-1,2′-indene-1′,2″-pyrrol]-5″amine] are 0.031 nM and 18 nM.
The corresponding values for `CC#Cc1cncc(-c2ccc3c(c2)C2(C=C(F)C(N)=N2)[C@]2(CC[C@@H](OC)CC2)C3)c1` (stereo partly drawn) [Example 4, (1s,4s)-4″-Fluoro-4-methoxy-6′-[5-(prop-1-yn-1-yl)pyridin-3-yl]-3′H-dispiro[cyclohexane-1,2′-indene-1′,2″-pyrrol]-5″amine] are 1.1 nM and 258 nM.
The corresponding values for `CO[C@H]1CC[C@]2(CC1)Oc1ccc(-c3cc(F)cc(C#N)c3)cc1C21C=C(F)C(N)=N1` (stereo partly drawn) [Example 5, 3-[(1s,4s)-5″-Amino-4″-fluoro-4-methoxydispiro[cyclohexane-1,2′-[1]benzofuran-3′,2″-pyrrol]-5′-yl]-5-fluorobenzonitrile] are 3 nM and 71 nM.
Regarding `CC1(C)COc2ccc(-c3cncnc3)cc2C12C=C(F)C(N)=N2` (stereo not drawn) [Example 6, 4′-Fluoro-3,3-dimethyl-6-(pyrimidin-5-yl)spiro[chroman-4,2′-pyrrol]-5′-amine], the IC50 in assay [2] amounted to 19 nM; in assay [3], 770 nM.
The corresponding values for `CC1(C)COc2ccc(-c3cncc(F)c3)cc2C12C=C(F)C(N)=N2` (stereo not drawn) [Example 7, 4′-Fluoro-6-(5-fluoropyridin-3-yl)-3,3-dimethylspiro[chroman-4,2′-pyrrol]-5′-amine] are 30 nM and 770 nM.
The corresponding values for `CC1(C)COc2ccc(-c3cc(F)cc(F)c3)cc2C12C=C(F)C(N)=N2` (stereo not drawn) [Example 8, 6-(3,5-Difluorophenyl)-4′-fluoro-3,3-dimethylspiro[chroman-4,2′-pyrrol]-5′-amine] are 256 nM and 640 nM.
The corresponding values for `CC1(C)Cc2ccc(-c3cncnc3)cc2C12C=C(F)C(N)=N2` (stereo not drawn) [Example 9, 4′-fluoro-2,2-dimethyl-6-(pyrimidin-5-yl)-2,3-dihydrospiro[indene-1,2′-pyrrol]-5′-amine] are 168 nM and 3790 nM.
